Experimental data published in PubChem BioAssay (NCI).
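Values below derive from 48-hour exposures of cells grown in 96-well plates, with endpoints linearly interpolated between the two concentrations bracketing the appropriate inhibition level. TGI denotes the concentration required for complete inhibition of growth.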

Columns and labels:
Assay in all cases: NCI-60 cell line screen, 48 h
DMS 114 small cell lung = test system: DMS 114 small cell lung
LXFL 529 NSCLC = test system: LXFL 529 NSCLC
SK-MEL-5 melanoma = test system: SK-MEL-5 melanoma
TK-10 renal = test system: TK-10 renal
SF-295 CNS = test system: SF-295 CNS
OVCAR-4 ovarian = test system: OVCAR-4 ovarian
KM12 colon = test system: KM12 colon
UACC-62 melanoma = test system: UACC-62 melanoma
MOLT-4 leukemia = test system: MOLT-4 leukemia
SNB-19 CNS = test system: SNB-19 CNS
DLD-1 colon = test system: DLD-1 colon

| SMILES | TGI (DMS 114 small cell lung) [µM] | TGI (LXFL 529 NSCLC) [µM] | TGI (SK-MEL-5 melanoma) [µM] | TGI (TK-10 renal) [µM] | TGI (SF-295 CNS) [µM] | TGI (OVCAR-4 ovarian) [µM] | TGI (KM12 colon) [µM] | TGI (UACC-62 melanoma) [µM] | TGI (MOLT-4 leukemia) [µM] | TGI (SNB-19 CNS) [µM] | TGI (DLD-1 colon) [µM] |
| --- | --- | --- | --- | --- | --- | --- | --- | --- | --- | --- | --- |
| N#CC(NNC(=O)c1ccccc1O)c1ccc(O)cc1 (configuration not stated) | 8.62 | > 100 | > 100 | > 100 | > 100 | > 100 | > 100 | 5.97 | > 100 | – | – |
| Cc1cc(=O)[nH]c(NN2C(Cl)C(=O)C2c2ccco2)n1 (configuration not stated) | > 100 | > 100 | > 100 | > 100 | – | > 100 | > 100 | 63.6 | > 100 | > 100 | – |
| NNc1nnc(-c2ccccc2)nc1Cc1ccccc1 | 17 | 78.9 | > 100 | > 100 | – | > 100 | > 100 | 16.1 | > 100 | > 100 | > 100 |
| CCOC(=O)/C(C1=N[C@H](C(=O)OCC)CS1)=C(\O)c1ccccc1 | – | > 100 | > 100 | – | > 100 | > 100 | > 100 | > 100 | > 100 | > 100 | > 100 |
| CC(C)C(=O)/C=C/c1ccccc1 | – | > 100 | > 100 | – | > 100 | > 100 | > 100 | > 100 | > 100 | > 100 | > 100 |
| Cc1ccc(Cl)c2c(=O)cc(-c3ccccc3)[nH]c12 | – | > 100 | > 100 | > 100 | > 100 | > 100 | > 100 | > 100 | > 100 | – | > 100 |
| Cc1cccc(=O)c([O-])c1.Cc1cccc(=O)c([O-])c1.Cc1cccc(=O)c([O-])c1.Cc1cccc(=O)c([O-])c1.[Th+4] | 15.6 | > 100 | 31.9 | > 100 | > 100 | > 100 | > 72.7 | 19.6 | > 27 | > 100 | > 100 |
| O=C(NCCNCCO)N/N=C/c1ccccc1 | > 100 | > 100 | > 100 | > 100 | > 100 | > 100 | > 100 | > 100 | > 100 | > 100 | > 100 |
